Measurements from patent US20090142808A1, “NOVEL ENZYME WITH FRUCTOFURANOSIDASE ACTIVITY, WHICH IS USED TO OBTAIN PREBIOTIC OLIGOSACCHARIDES” (Consejo Superior de Investigaciones Cientificas, priority 2005, published 2009).

Columns and labels:
[1] = test system: extracellular fraction of X. dendrorhous (fructofuranosidase activity); experiment: Fructofuranosidase activity of the cell-free extracellular fraction on different carbohydrates (glucose release, glucose oxidase-peroxidase); assay type: biochemical, Xanthophyllomyces dendrorhous; details: for Specific activity: cell-free fraction of culture in maltose minimal medium, 2.37 ODU660 nm; for Fructofuranosidase activity detected: cell-free fraction, compound used as substrate
Experimental: (§1) The cell-free fraction was obtained by centrifugation (F-0) of an X. dendrorhous culture grown at 23° C. and 160 rpm. Fructofuranosidase activity was assayed in this fraction by assessing the release of glucose on different substrates. A colorimetric assay and standard methodology were used. The released glucose was quantified using the glucose oxidase-peroxidase coupled reaction: 0.4 ml of the solution to be assayed was mixed with 0.1 ml of A:B solution (20:1) (A: 0.85 U/ml glucose oxidase, 0.40 U/ml peroxidase in sodium phosphate buffer pH 5; B: 0.6% o-dianisidine). It was incubated for 30 minutes at 37° C. and spectrophotometrically quantified at 450 nm. A standard glucose curve (1 to 100 μg/ml) was used. The fructofuranosidase activity unit is defined in μg/ml min of glucose assessed in the described conditions.
The cell-free fraction, obtained by centrifuging an X. dendrorhous culture in maltose minimal medium, grown to an optical density of 2.37 ODU660 nm, was assayed on different substrates.

[2] = test system: X. dendrorhous F-3 fraction (purified fructofuranosidase); experiment: Hydrolytic (fructofuranosidase) activity of the purified enzyme F-3 on different substrates; assay type: biochemical, Xanthophyllomyces dendrorhous; details: for Specific activity: purified protein, 1% substrate; for Hydrolytic activity observed: enzyme purified to homogeneity (F-3)
Experimental: as §1
The hydrolytic activity of the enzyme purified to homogeneity (F-3) following the described process was assayed on different substrates.

[3] = test system: purified X. dendrorhous enzyme (F-3); experiment: Fructosyltransferase activity: sucrose 600 g/l incubated with purified enzyme at 45° C., HPLC; assay type: biochemical, Xanthophyllomyces dendrorhous; details: for Composition of the reaction mixture: 45° C., 600 g sucrose/l, 5 U/ml; for composition of the system at the end time: Example 8: 160 hours, 40° C. as printed (heading 45° C.), 200 rpm, FOS = tri- and tetrasaccharides
Experimental: (§2) A study was carried out using a high concentration of sucrose (600 g/l), conditions which can favor the formation of glycosidic bonds in detriment of hydrolysis. […] On one hand, fructose (peak 1) and glucose (peak 2) are formed as hydrolytic products. On the other hand, two trisaccharides are formed: a majority product (peak 4), which is most likely neokestose [β-D-Fru-(2→6)-α-D-Glu-(1→2)-D-Fru] (since it is the majority transfructosylation product described in X. dendrorhous cultures) and another minor product (peak 5), identified as 1-kestose [α-D-Glu-(1→2)-β-D-Fru(1→2)-β-D-Fru]. Small amounts of different compounds (peaks 6-8) which, taking into account the retention time in the column, are probably tetrasaccharides not yet identified, are furthermore observed. The sucrose which has not yet reacted corresponds to peak 3.
A solution with a high concentration of sucrose (600 g/l) in 0.2 M sodium acetate buffer pH 5.6 was prepared. 5 U/ml of fructofuranosidase (a unit U is the enzymatic activity corresponding to the release of a micromole of reducer sugars per minute using sucrose 100 g/l as a substrate in 0.2 M buffer sodium acetate pH 5.6 at 60° C.) were added. […] Aliquots were extracted at different times, incubated for 5 minutes at 80° C. to inactivate the enzyme, diluted 1:4 (v/v) with water, centrifuged for 5 min at 6000 rpm in an Eppendorf tube with a 0.45 μm filter and analyzed by HPLC liquid chromatography. The profile of the products formed can be seen in FIG. 5. […] Two trisaccharides are obtained: a majority product which is most likely neokestose [β-D-Fru-(2→6)-α-D-Glu-(1→2)-D-Fru] and another minor product identified as 1-kestose [α-D-Glu-(1→2)-β-D-Fru(1→2)-β-D-Fru]. At the end time (160 hours), the composition of the system was: 10.5% fructose, 17.6% glucose, 54.6% sucrose, 17.3% fructooligosaccharides (tri- and tetrasaccharides).

[4] = test system: purified X. dendrorhous enzyme (F-3); experiment: Fructosyltransferase activity: sucrose 600 g/l incubated with purified enzyme at 60° C., HPLC; assay type: biochemical, Xanthophyllomyces dendrorhous
Experimental: as §2
The total percentage (w/w) of fructooligosaccharides after 160 hours of reaction was the 9.7%, value relating to the total carbohydrates in the medium.

[5] = target: X. dendrorhous fructofuranosidase (Phaffia rhodozyma, UniProt B8YJM2); experiment: Kinetic characterization of the purified enzyme on sucrose; assay type: biochemical, Xanthophyllomyces dendrorhous; details: 20 minutes, 20 μl purified enzyme; standard error of the mean ±10
Experimental: The kinetic characterization of the enzyme purified according to the described process was performed on sucrose. […] The assays were performed in 20 minutes and 20 μl of purified enzyme for each reaction according to the described process.

[6] = test system: Whole X. dendrorhous cells; details: cell suspension in phosphate-citrate buffer, 25° C., 11% sucrose; cited from earlier work
[7] = 160 h, new catalyst load (5 U) added after 140 hours
[8] = 186 h, new catalyst load (5 U) added after 140 hours
[9] = reaction time 24 h, 600 g sucrose/l, 5 U/ml
[10] = reaction time 140 h, 600 g sucrose/l, 5 U/ml
[11] = reaction time 160 h, 600 g sucrose/l, 5 U/ml

Chain of X. dendrorhous fructofuranosidase (B8YJM2 entry or part of it): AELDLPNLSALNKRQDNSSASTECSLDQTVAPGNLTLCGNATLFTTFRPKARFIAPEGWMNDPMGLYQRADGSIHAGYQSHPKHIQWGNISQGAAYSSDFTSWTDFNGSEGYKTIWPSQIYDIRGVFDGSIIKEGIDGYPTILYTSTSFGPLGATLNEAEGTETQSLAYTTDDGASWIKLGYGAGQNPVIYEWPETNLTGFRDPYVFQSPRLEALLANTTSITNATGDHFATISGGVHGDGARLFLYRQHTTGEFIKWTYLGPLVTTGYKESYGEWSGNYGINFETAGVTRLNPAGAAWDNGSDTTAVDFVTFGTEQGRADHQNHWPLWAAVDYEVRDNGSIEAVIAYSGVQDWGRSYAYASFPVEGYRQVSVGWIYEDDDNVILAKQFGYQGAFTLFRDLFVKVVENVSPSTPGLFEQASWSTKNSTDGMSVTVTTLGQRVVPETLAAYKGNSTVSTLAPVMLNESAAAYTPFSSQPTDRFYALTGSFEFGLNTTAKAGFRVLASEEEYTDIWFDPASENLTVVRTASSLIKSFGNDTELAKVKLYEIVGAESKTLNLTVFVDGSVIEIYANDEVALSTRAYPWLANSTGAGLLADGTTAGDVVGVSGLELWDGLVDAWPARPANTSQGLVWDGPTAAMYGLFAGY

Row | Compound | Specific activity [1] [mU/μg] | Specific activity [2] [U/μg] | Composition of the reaction mixture ([3]; reaction time 24 h) [grams/liter] | Composition of the reaction mixture ([3]; reaction time 140 h) [grams/liter] | Composition of the reaction mixture ([3]; reaction time 160 h) [grams/liter] | Composition of the reaction mixture [4, 7] [grams/liter] | Composition of the reaction mixture [4, 8] [grams/liter] | Composition of the reaction mixture [4, 9] [grams/liter] | Composition of the reaction mixture [4, 10] [grams/liter] | Composition of the reaction mixture [4, 11] [grams/liter] | Fructofuranosidase activity detected [1] | Hydrolytic activity observed [2] | other results
1 | OC[C@H]1O[C@H](OC[C@H]2OC(O)(CO)[C@@H](O)[C@@H]2O)[C@H](O)[C@@H](O)[C@@H]1O (some centres unmarked) [palatinose] | 217 | 5 |  |  |  |  |  |  |  |  |  |  | 
2 | O=C(CO)[C@@H](O)[C@H](O)[C@H](O)CO [fructose] |  |  | 19.0 | 63.5 | 65.1 | 56.5 | 76.0 | 36.8 | 40.9 | 41.2 |  |  | composition of the system at the end time [3]: 10.5%
3 | OC[C@H]1O[C@@](CO)(OC[C@@]2(O[C@H]3O[C@H](CO)[C@@H](O)[C@H](O)[C@H]3O)O[C@H](CO)[C@@H](O)[C@@H]2O)[C@@H](O)[C@@H]1O [1-kestose] | 1675 | 41 | 9.2 | 24.8 | 33.5 | 23.9 | 25.8 | 10.3 | 21.3 | 21.9 |  |  | 
4 | OC[C@H]1O[C@H](O[C@H]2[C@H](O)[C@@H](O)C(O)O[C@@H]2CO)[C@H](O)[C@@H](O)[C@@H]1O (mixture of isomers) [maltose] |  |  |  |  |  |  |  |  |  |  | No activity was detected | No activity was observed | 
5 | OC[C@H]1O[C@@](CO)(OC[C@@]2(OC[C@@]3(O[C@H]4O[C@H](CO)[C@@H](O)[C@H](O)[C@H]4O)O[C@H](CO)[C@@H](O)[C@@H]3O)O[C@H](CO)[C@@H](O)[C@@H]2O)[C@@H](O)[C@@H]1O [nistose] | 502 | 13 |  |  |  |  |  |  |  |  |  |  | 
6 | O=C[C@H](O)[C@@H](O)[C@H](O)[C@H](O)CO [glucose] |  |  | 37.8 | 106.8 | 109.3 | 119.5 | 131.2 | 53.2 | 79.3 | 84.3 |  |  | composition of the system at the end time [3]: 17.6%
7 | OC[C@H]1O[C@H](O[C@H]2[C@H](O)[C@@H](O)[C@@H](O[C@H]3[C@H](O)[C@@H](O)[C@@H](O[C@H]4[C@H](O)[C@@H](O)[C@@H](O[C@H]5[C@H](O)[C@@H](O)[C@@H](O[C@H]6[C@H](O)[C@@H](O)[C@@H](O[C@H]7[C@H](O)[C@@H](O)C(O)O[C@@H]7CO)O[C@@H]6CO)O[C@@H]5CO)O[C@@H]4CO)O[C@@H]3CO)O[C@@H]2CO)[C@H](O)[C@@H](O)[C@@H]1O (some centres unmarked) [maltoheptose] |  |  |  |  |  |  |  |  |  |  | No activity was detected | No activity was observed | 
8 | OC[C@H]1O[C@H](O[C@@H]2COC(O)(CO)[C@@H](O)[C@@H]2O)[C@H](O)[C@@H](O)[C@@H]1O (some centres unmarked) [leucrose] |  |  |  |  |  |  |  |  |  |  | No activity was detected | No activity was observed | 
9 | OC[C@H]1O[C@@](CO)(O[C@H]2O[C@H](CO)[C@@H](O)[C@H](O)[C@H]2O)[C@@H](O)[C@@H]1O [sucrose] | 62140 | 675 | 513.4 | 357.5 | 338.9 | 358.4 | 323.1 | 474.0 | 424.2 | 416.1 |  |  | Km [5]: 4 mM; Vmax [5]: 947 μg glucose min^−1; kcat [5]: 2.35 s⁻¹; composition of the system at the end time [3]: 54.6%
10 | OC[C@H]1O[C@@](CO)(OC[C@H]2O[C@H](O[C@]3(CO)O[C@H](CO)[C@@H](O)[C@@H]3O)[C@H](O)[C@@H](O)[C@@H]2O)[C@@H](O)[C@@H]1O [neokestose] |  |  | 20.5 | 47.4 | 53.3 | 41.6 | 43.9 | 25.8 | 34.3 | 36.5 |  |  | maximum of neokestose obtained [6]: 75.1 g/L
11 | OC[C@H]1O[C@H](OC[C@H]2O[C@H](O[C@]3(CO)O[C@H](CO)[C@@H](O)[C@@H]3O)[C@H](O)[C@@H](O)[C@@H]2O)[C@H](O)[C@@H](O)[C@H]1O [raffinose] | 335 | 8 |  |  |  |  |  |  |  |  |  |  | 
12 | maltotriose |  |  |  |  |  |  |  |  |  |  | No activity was detected | No activity was observed | 
